Test results published in patent US20100298141A1, “SUBSTITUTED PYRIDINE N-OXIDE HERBICIDES” (E. I. DU PONT DE NEMOURS AND COMPANY, priority 2007, published 2010).

Assays:
velvetleaf [1] = assay: Test C pre-/postemergence test; format: in vivo, Abutilon theophrasti; conditions: for Plant response rating, Velvetleaf: 31 g ai/ha, scale 0 to 100 (0 no effect, 100 complete control)
Method in brief: (§1)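 Compounds in a non-phytotoxic solvent with surfactant applied preemergence to seeded pots and, at the same time, postemergence to plants 2–18 cm tall (1- to 4-leaf stage). Paddy tests: pots flooded to 3 cm, compound applied into the water, depth held throughout.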

catchweed bedstraw = assay: Test C pre-/postemergence test; format: in vivo, Galium aparine; conditions: for Plant response rating, Galium: 31 g ai/ha, scale 0 to 100 (0 no effect, 100 complete control)
Method in brief: as §1

velvetleaf [2] = assay: Test A pre-/postemergence greenhouse test; format: in vivo, Abutilon theophrasti; conditions: for Velvetleaf plant response rating: 0 to 100 scale; for Plant response rating, Velvetleaf: 0 to 100 scale where 0 is no effect and 100 is complete control
Method in brief: (§2)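 Each test compound, dissolved in a non-phytotoxic solvent mixture with surfactant, was sprayed directly onto seeded soil (loam/sand blend) and, at the same moment, onto seedlings carrying one to two leaves. Around ten greenhouse days later, plants were rated visually for injury relative to untreated controls.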

Surinam grass = assay: Test C pre-/postemergence test; format: in vivo, Brachiaria decumbens; conditions: for Plant response rating, Surinam Grass: 31 g ai/ha, scale 0 to 100 (0 no effect, 100 complete control)
Method in brief: as §1

barnyardgrass [3] = assay: Test C flooded paddy test; format: in vivo, Echinochloa crus-galli; conditions: Flood
Method in brief: (§3)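 Pots were flooded to 3 cm above the soil surface at treatment, compound applied directly to the paddy water, and that depth held throughout. Plants were kept in a greenhouse for 13 to 15 days, then visually rated against untreated controls.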

woolly cupgrass = assay: Test C pre-/postemergence test; format: in vivo, Eriochloa villosa; conditions: for Plant response rating, Cupgrass, Woolly: 31 g ai/ha, scale 0 to 100 (0 no effect, 100 complete control)
Method in brief: as §1

common ragweed = assay: Test C pre-/postemergence test; format: in vivo, Ambrosia elation; conditions: for Plant response rating, Ragweed: 31 g ai/ha, scale 0 to 100 (0 no effect, 100 complete control)
Method in brief: as §1

green foxtail = assay: Test C pre-/postemergence test; format: in vivo, Setaria viridis
Method in brief: as §1

soybean = assay: Test C pre-/postemergence test; format: in vivo, Glycine max; conditions: for Plant response rating, Soybean: 31 g ai/ha, scale 0 to 100 (0 no effect, 100 complete control)
Method in brief: as §1

crabgrass = assay: Test A pre-/postemergence greenhouse test; format: in vivo, Digitaria sanguinalis; conditions: for Crabgrass, Large plant response rating: 0 to 100 scale; for Plant response rating, Crabgrass, Large: 0 to 100 scale where 0 is no effect and 100 is complete control
Method in brief: as §2

blackgrass = assay: Test C pre-/postemergence test; format: in vivo, Alopecurus myosuroides; conditions: for Plant response rating, Blackgrass: 31 g ai/ha, scale 0 to 100 (0 no effect, 100 complete control)
Method in brief: as §1

duck salad = assay: Test C flooded paddy test; format: in vivo, Heteranthera limosa; conditions: Flood
Method in brief: as §3

barnyardgrass [4] = assay: Test A pre-/postemergence greenhouse test; format: in vivo, Echinochloa crus-galli; conditions: for Barnyardgrass plant response rating: 0 to 100 scale; for Plant response rating, Barnyardgrass: 0 to 100 scale where 0 is no effect and 100 is complete control
Method in brief: as §2

lambsquarters = assay: Test C pre-/postemergence test; format: in vivo, Chenopodium album; conditions: for Plant response rating, Lambsquarters: 31 g ai/ha, scale 0 to 100 (0 no effect, 100 complete control)
Method in brief: as §1

pigweed = assay: Test C pre-/postemergence test; format: in vivo, Amaranthus retroflexus; conditions: for Plant response rating, Pigweed: 31 g ai/ha, scale 0 to 100 (0 no effect, 100 complete control)
Method in brief: as §1

giant foxtail = assay: Test A pre-/postemergence greenhouse test; format: in vivo, Setaria faberi; conditions: for Foxtail, Giant plant response rating: 0 to 100 scale; for Plant response rating, Foxtail, Giant: 0 to 100 scale where 0 is no effect and 100 is complete control
Method in brief: as §2

downy brome = assay: Test C pre-/postemergence test; format: in vivo, Bromus tectorum; conditions: for Plant response rating, Bromegrass, Downy: 31 g ai/ha, scale 0 to 100 (0 no effect, 100 complete control)
Method in brief: as §1

[5] = 62 g ai/ha, Preemergence, scale 0 to 100
[6] = 125 g ai/ha, preemergence, scale 0 (no effect) to 100 (complete control)
[7] = preemergence, 250 g ai/ha, scale 0 (no effect) to 100 (complete control)
[8] = Postemergence, 125 g ai/ha, 0 is no effect, 100 is complete control
[9] = Postemergence, 500 g ai/ha, 0 is no effect, 100 is complete control
[10] = Preemergence, 125 g ai/ha, 0 no effect, 100 complete control
[11] = 31 g ai/ha, scale 0 to 100 (0 no effect, 100 complete control)
[12] = 62 g ai/ha, scale 0 to 100, 0 no effect, 100 complete control, 13 to 15 days
[13] = 125 g ai/ha, scale 0 to 100, 0 no effect, 100 complete control, 13 to 15 days
[14] = 250 g ai/ha, scale 0 to 100, 0 no effect, 100 complete control, 13 to 15 days

Cn1nc(C(F)(F)F)c(C(Cl)S(=O)(=O)c2cccc[n+]2[O-])c1OCC(F)(F)F (racemic) [Compound 36]
Velvetleaf plant response rating (velvetleaf [1]; [5]): 0
Velvetleaf plant response rating (velvetleaf [1]; [6]): 40
Plant response rating, Velvetleaf (velvetleaf [1]; Preemergence): 0
Velvetleaf plant response rating (velvetleaf [1]; [7]): 70
Galium plant response rating (catchweed bedstraw; [5]): 0
Galium plant response rating (catchweed bedstraw; [6]): 100
Plant response rating, Galium (catchweed bedstraw; Preemergence): 0
Galium plant response rating (catchweed bedstraw; [7]): 100
Velvetleaf plant response rating (velvetleaf [2]; [8]): 0
Velvetleaf plant response rating (velvetleaf [2]; [9]): 40
Velvetleaf plant response rating (velvetleaf [2]; [10]): 40
Plant response rating, Velvetleaf (velvetleaf [2]; Preemergence, 500 g ai/ha): 70
Surinam Grass plant response rating (Surinam grass; [5]): 80
Surinam Grass plant response rating (Surinam grass; [6]): 100
Plant response rating, Surinam Grass (Surinam grass; Preemergence): 50
Surinam Grass plant response rating (Surinam grass; [7]): 100
Plant response rating, Barnyardgrass (barnyardgrass [3]; [11]): 0
Plant response rating, Barnyardgrass (barnyardgrass [3]; [12]): 10
Plant response rating, Barnyardgrass (barnyardgrass [3]; [13]): 25
Plant response rating, Barnyardgrass (barnyardgrass [3]; [14]): 90
Cupgrass, Woolly plant response rating (woolly cupgrass; [5]): 55
Cupgrass, Woolly plant response rating (woolly cupgrass; [6]): 100
Plant response rating, Cupgrass, Woolly (woolly cupgrass; Preemergence): 55
Cupgrass, Woolly plant response rating (woolly cupgrass; [7]): 100
Ragweed plant response rating (common ragweed; [5]): 0
Ragweed plant response rating (common ragweed; [6]): 10
Plant response rating, Ragweed (common ragweed; Preemergence): 0
Ragweed plant response rating (common ragweed; [7]): 50
Foxtail, Green plant response rating (green foxtail; [5]): 70
Foxtail, Green plant response rating (green foxtail; [6]): 75
Foxtail, Green plant response rating (green foxtail; [7]): 100
Soybean plant response rating (soybean; [5]): 5
Soybean plant response rating (soybean; [6]): 15
Plant response rating, Soybean (soybean; Preemergence): 0
Soybean plant response rating (soybean; [7]): 20
Crabgrass, Large plant response rating (crabgrass; [8]): 50
Crabgrass, Large plant response rating (crabgrass; [9]): 80
Crabgrass, Large plant response rating (crabgrass; [10]): 70
Plant response rating, Crabgrass, Large (crabgrass; Preemergence, 500 g ai/ha): 90
Blackgrass plant response rating (blackgrass; [5]): 95
Blackgrass plant response rating (blackgrass; [6]): 95
Plant response rating, Blackgrass (blackgrass; Preemergence): 60
Blackgrass plant response rating (blackgrass; [7]): 100
Plant response rating, Ducksalad (duck salad; [11]): 85
Plant response rating, Ducksalad (duck salad; [12]): 85
Plant response rating, Ducksalad (duck salad; [13]): 90
Plant response rating, Ducksalad (duck salad; [14]): 90
Barnyardgrass plant response rating (barnyardgrass [4]; [8]): 40
Barnyardgrass plant response rating (barnyardgrass [4]; [9]): 80
Barnyardgrass plant response rating (barnyardgrass [4]; [10]): 100
Plant response rating, Barnyardgrass (barnyardgrass [4]; Preemergence, 500 g ai/ha): 100
Lambsquarters plant response rating (lambsquarters; [5]): 60
Lambsquarters plant response rating (lambsquarters; [6]): 80
Plant response rating, Lambsquarters (lambsquarters; Preemergence): 0
Lambsquarters plant response rating (lambsquarters; [7]): 95
Pigweed plant response rating (pigweed; [5]): 90
Pigweed plant response rating (pigweed; [6]): 100
Plant response rating, Pigweed (pigweed; Preemergence): 80
Pigweed plant response rating (pigweed; [7]): 100
Foxtail, Giant plant response rating (giant foxtail; [8]): 40
Foxtail, Giant plant response rating (giant foxtail; [9]): 70
Foxtail, Giant plant response rating (giant foxtail; [10]): 100
Plant response rating, Foxtail, Giant (giant foxtail; Preemergence, 500 g ai/ha): 100
Bromegrass, Downy plant response rating (downy brome; [5]): 0
Bromegrass, Downy plant response rating (downy brome; [6]): 30
Plant response rating, Bromegrass, Downy (downy brome; Preemergence): 0
Bromegrass, Downy plant response rating (downy brome; [7]): 50

Cc1cc[n+]([O-])c(S(=O)(=O)C(Cl)c2c(C(F)(F)F)nn(C)c2OCC(F)(F)F)c1 (racemic) [Compound 37]
Velvetleaf plant response rating (velvetleaf [1]; [5]): 0
Velvetleaf plant response rating (velvetleaf [1]; [6]): 10
Plant response rating, Velvetleaf (velvetleaf [1]; Preemergence): 0
Velvetleaf plant response rating (velvetleaf [1]; [7]): 70
Plant response rating, Galium (catchweed bedstraw; Preemergence): 80
Galium plant response rating (catchweed bedstraw; [7]): 80
Velvetleaf plant response rating (velvetleaf [2]; [8]): 0
Velvetleaf plant response rating (velvetleaf [2]; [9]): 10
Velvetleaf plant response rating (velvetleaf [2]; [10]): 40
Plant response rating, Velvetleaf (velvetleaf [2]; Preemergence, 500 g ai/ha): 80
Surinam Grass plant response rating (Surinam grass; [5]): 100
Surinam Grass plant response rating (Surinam grass; [6]): 100
Plant response rating, Surinam Grass (Surinam grass; Preemergence): 50
Surinam Grass plant response rating (Surinam grass; [7]): 100
Plant response rating, Barnyardgrass (barnyardgrass [3]; [11]): 10
Plant response rating, Barnyardgrass (barnyardgrass [3]; [12]): 10
Plant response rating, Barnyardgrass (barnyardgrass [3]; [13]): 10
Plant response rating, Barnyardgrass (barnyardgrass [3]; [14]): 80
Cupgrass, Woolly plant response rating (woolly cupgrass; [5]): 80
Cupgrass, Woolly plant response rating (woolly cupgrass; [6]): 98
Plant response rating, Cupgrass, Woolly (woolly cupgrass; Preemergence): 40
Cupgrass, Woolly plant response rating (woolly cupgrass; [7]): 100
Ragweed plant response rating (common ragweed; [5]): 0
Ragweed plant response rating (common ragweed; [6]): 70
Plant response rating, Ragweed (common ragweed; Preemergence): 0
Ragweed plant response rating (common ragweed; [7]): 80
Plant response rating, Foxtail, Green (green foxtail; Preemergence, 31 g ai/ha, scale 0 to 100 (0 no effect, 100 complete control)): 0
Foxtail, Green plant response rating (green foxtail; [7]): 100
Soybean plant response rating (soybean; [6]): 10
Plant response rating, Soybean (soybean; Preemergence): 0
Soybean plant response rating (soybean; [7]): 10
Crabgrass, Large plant response rating (crabgrass; [8]): 30
Crabgrass, Large plant response rating (crabgrass; [9]): 80
Crabgrass, Large plant response rating (crabgrass; [10]): 60
Plant response rating, Crabgrass, Large (crabgrass; Preemergence, 500 g ai/ha): 90
Plant response rating, Blackgrass (blackgrass; Preemergence): 95
Blackgrass plant response rating (blackgrass; [7]): 100
Plant response rating, Ducksalad (duck salad; [11]): 20
Plant response rating, Ducksalad (duck salad; [12]): 40
Plant response rating, Ducksalad (duck salad; [13]): 85
Plant response rating, Ducksalad (duck salad; [14]): 95
Barnyardgrass plant response rating (barnyardgrass [4]; [8]): 30
Barnyardgrass plant response rating (barnyardgrass [4]; [9]): 70
Barnyardgrass plant response rating (barnyardgrass [4]; [10]): 90
Plant response rating, Barnyardgrass (barnyardgrass [4]; Preemergence, 500 g ai/ha): 100
Lambsquarters plant response rating (lambsquarters; [5]): 80
Lambsquarters plant response rating (lambsquarters; [6]): 100
Plant response rating, Lambsquarters (lambsquarters; Preemergence): 0
Lambsquarters plant response rating (lambsquarters; [7]): 100
Pigweed plant response rating (pigweed; [5]): 100
Pigweed plant response rating (pigweed; [6]): 100
Plant response rating, Pigweed (pigweed; Preemergence): 80
Pigweed plant response rating (pigweed; [7]): 100
Foxtail, Giant plant response rating (giant foxtail; [8]): 30
Foxtail, Giant plant response rating (giant foxtail; [9]): 80
Foxtail, Giant plant response rating (giant foxtail; [10]): 90
Plant response rating, Foxtail, Giant (giant foxtail; Preemergence, 500 g ai/ha): 100
Plant response rating, Bromegrass, Downy (downy brome; Preemergence): 0
Bromegrass, Downy plant response rating (downy brome; [7]): 60
